The text below walks through data of patent publication EP0541192A1, “Use of opiate antagonists for the treatment of endogen hyperinsulinemia” (Ferring Arzneimittel GmbH, priority 1991, dated 1993).

A short description of data set [1]: oral glucose tolerance test (oGTT) before and after 4 weeks of treatment. The conditions noted are these: 50 mg/Tag oral. Format: in vivo, Frauen. The procedure:
(§1) Die folgenden Untersuchungen wurden an vier gegenüber Insulin resistenten Frauen durchgeführt, welche ein Hyperandrogenämie litten. Das Alter der Frauen lag zwischen 16 und 33 Jahren und ihr Körpermasseindex (Body mass Index - BMI) reichte von 28 bis 41. Die Hyperandrogenämie wurde durch Bestimmung von LH, FSH, Prolactin, Testosteron, freien Testosteronen, SHBG und DHEAS im Serum diagnostiziert. Vor der Behandlung lagen die Testosteronwerte zwischen 0,4 und 1,65 ng/ml und die Insulinkonzentrationen betrugen von 25 bis 62 mcU/ml.
Die Insulinresistenz wurde durch orale Verabreichung von 400 ml einer Lösung nachgewiesen, welche eine Mono-Oligosaccharidmischung enthielt, die nach enzymatischer Hydrolyse im Gastrointestinaltrakt 100 g Glucose lieferte (Dextro-oGTT, Boehringer Mannheim). Während des oralen Glucose-Toleranz-Tests (oGTT) wurden vor der Kohlenhydratbelastung und danach 3 Stunden lang im Abstand von jeweils 15 Minuten Blutproben entnommen. In allen Proben wurde die Glucosekonzentration mit dem Hexokinase/Glucose-6-Phosphatdehydrogenase-Verfahren bestimmt. Ferner wurden die Insulin- und C-Peptidkonzentrationen mit handelsüblichen Radioimmun-Kits (Serono Diagnostic, Freiburg) bestimmt. Die Ergebnisse des oGTT wurden ausgewertet, indem das Verhältnis von Insulin zu Glucose berechnet wurde und die Flächen unter den Glucose-, Insulin- und C-Peptid-Kurven während des oGTT bestimmt wurden (vgl. Figur 1).
(§2) Als Opiat-Antagonist wurde Naltrexon (Ferring Arzneimittel GmbH, Kiel) in einer Dosis von 50 mg/Tag oral verabreicht. 4 Wochen nach Beginn der Naltrexon-Behandlung wurde nach dem gleichen Verfahren wie oben beschrieben ein zweiter oGTT durchgeführt und die Ergebnisse dieses Tests mit den vor Beginn der Behandlung erhaltenen Ergebnissen verglichen, wobei die Proben paarweise einem t-Test unterworfen wurden.

The nature of data set [2]: serum androgen and pituitary hormone levels during treatment. Format: in vivo, Frauen. As to conditions: 50 mg/Tag oral. The procedure: as §1, §2
Im Gegensatz dazu blieben die Androgenkonzentrationen sowie die LH-, FSH- und Prolactin-Spiegel durch die Naltrexon-Behandlung unbeeinflußt.

Data set [3] in a line: side effects / tolerability during treatment. Format: in vivo, Frauen. The conditions noted are these: 50 mg/Tag oral.
For data set [4] the following is noted: general statement, no data; cited from earlier work.

In the case of `O=C1CC[C@@]2(O)[C@H]3Cc4ccc(O)c5c4[C@@]2(CCN3CC2CC2)C1O5` (stereo partly drawn) [Naltrexon, 17-(Cyclopropylmethyl)-4,5-epoxy-3,14-dihydroxymorphinan-6-on], in data set [1] (oGTT), the “Verhältnis von Insulin zu Glucose” value is reported as “sank” and the “molare Verhältnis von C-Peptid zu Insulin” value is listed as “stieg”. For the same compound, the “Konzentration von C-Peptid” value in data set [1] (oGTT, reduced, but not to the same extent as insulin) was “reduziert”. Also, the “Insulinspiegel nach Kohlenhydratbelastung” value in data set [1] (four insulin-resistant hyperandrogenaemic women, oGTT vs. before treatment) is “beeindruckende Senkung”. In data set [2], the Androgenkonzentrationen result is given as “unbeeinflußt”, the FSH-Spiegel result is on record as “unbeeinflußt”, the LH-Spiegel entry is on record as “unbeeinflußt” and the Prolactin-Spiegel entry was “unbeeinflußt”. Also, the “Veränderungen des Blutbildes, der Leberenzyme und des Nierenstatus” value in data set [3] is “nicht beobachtet”. Moreover, the Nebenwirkungen result in data set [3] (one of four patients) is given as “Übelkeit mit Erbrechen und leichten Kopfschmerzen”. Also, the Verträglichkeit result in data set [3] (three of four patients) is “gut vertragen”. In data set [4], the “Verweildauer im Plasma” value is recorded as “lange”.
